≈ marks a conversion by molar mass, not a printed value. Bounds are passed on as bounds.

This passage reports MIC, IC50 and Ki results from ChEMBL document CHEMBL5230082, “Recent advances in steroid amino acid conjugates: Old scaffolds with new dimensions” (Eur J Med Chem, 2020).

The subject of one assay is Escherichia coli. Put plainly: Antibacterial activity against Escherichia coli. In kind it is functional.
Another assay concerns MCF7. As to the kind of experiment: Antiproliferative activity against human MCF7 by MTT assay. In kind it is functional, cell-based. A general note: Formazan colour is commonly taken as a measure of viable cells.
Assay [1] has as its target T1, Ileal sodium/bile acid cotransporter (Homo sapiens, UniProt Q12908).
T1 sequence (Q12908 whole entry): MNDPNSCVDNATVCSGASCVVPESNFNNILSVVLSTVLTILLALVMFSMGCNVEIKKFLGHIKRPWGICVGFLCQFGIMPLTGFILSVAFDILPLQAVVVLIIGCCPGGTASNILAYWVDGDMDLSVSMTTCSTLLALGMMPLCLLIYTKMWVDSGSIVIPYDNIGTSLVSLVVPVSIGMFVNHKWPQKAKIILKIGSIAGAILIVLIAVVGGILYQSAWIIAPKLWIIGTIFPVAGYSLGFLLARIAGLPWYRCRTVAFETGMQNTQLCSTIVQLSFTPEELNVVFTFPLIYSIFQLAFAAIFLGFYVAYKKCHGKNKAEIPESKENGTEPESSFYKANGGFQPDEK
As to the kind of experiment: Binding affinity to ASBT (unknown origin) assessed as inhibition constant.

In assay [2] the target is T2, Hepatic sodium/bile acid cotransporter (Homo sapiens, UniProt Q14973).
T2 sequence (Q14973 whole entry): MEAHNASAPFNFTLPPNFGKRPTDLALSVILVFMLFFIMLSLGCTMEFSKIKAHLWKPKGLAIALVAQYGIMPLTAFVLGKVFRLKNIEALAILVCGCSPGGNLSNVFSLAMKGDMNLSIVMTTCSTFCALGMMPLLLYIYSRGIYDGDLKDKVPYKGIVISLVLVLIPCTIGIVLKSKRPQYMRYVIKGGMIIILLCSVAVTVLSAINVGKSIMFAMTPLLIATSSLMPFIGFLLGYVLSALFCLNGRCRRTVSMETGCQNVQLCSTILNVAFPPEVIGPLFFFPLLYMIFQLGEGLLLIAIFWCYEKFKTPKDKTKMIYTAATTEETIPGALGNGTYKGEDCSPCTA
As to the kind of experiment: Binding affinity to NTCP (unknown origin) assessed as inhibition constant.

Take POLYMYXIN B: the MIC (in general, the least concentration at which growth counts as inhibited) in the assay on Escherichia coli worked out at 1.8 µg/mL. As to `C[C@H](CCC(=O)N[C@@H](CCCCNC(=O)CC[C@H](C)[C@H]1CC[C@H]2[C@@H]3CC[C@@H]4C[C@H](O)CC[C@]4(C)[C@H]3C[C@H](O)[C@]12C)C(=O)O)[C@H]1CC[C@H]2[C@@H]3CC[C@@H]4C[C@H](O)CC[C@]4(C)[C@H]3C[C@H](O)[C@]12C`, the IC50 (usually the concentration at which inhibition is half-maximal) with MCF7 was above 50 µM. In the case of `COC(=O)[C@H](CCCCNC(=O)CC[C@H](C)[C@H]1CC[C@H]2[C@@H]3CC[C@@H]4C[C@H](OC(C)=O)CC[C@]4(C)[C@H]3C[C@H](OC(C)=O)[C@]12C)NC(=O)CC[C@@H](C)[C@H]1CC[C@H]2[C@@H]3CC[C@@H]4C[C@H](OC(C)=O)CC[C@]4(C)[C@H]3C[C@H](OC(C)=O)[C@]12C`, the half-maximal inhibitory concentration (IC50) with MCF7 is above 100 µM. Regarding `C[C@H](CCC(=O)NCC(=O)O)[C@H]1CC[C@H]2[C@@H]3C(=O)C[C@@H]4C[C@H](O)CC[C@]4(C)[C@H]3CC[C@]12C`, the inhibitory constant (Ki) (usually a measure of affinity in units of concentration, obtained from inhibition or displacement) in assay [1] amounted to 20.4 µM; in assay [2] it was 4.21 µM. As for `C[C@H](CCC(=O)NCC(=O)O)[C@H]1CC[C@H]2[C@@H]3[C@@H](OC(=O)c4cccnc4)C[C@@H]4C[C@H](O)CC[C@]4(C)[C@H]3CC[C@]12C`, the inhibition constant (Ki) in assay [1] was found to be 15.2 µM; in assay [2], 11.8 µM. With `C[C@H](CCC(=O)NCC(=O)O)[C@H]1CC[C@H]2[C@@H]3[C@H](O)C[C@@H]4C[C@H](OC(=O)c5cccnc5)CC[C@]4(C)[C@H]3CC[C@]12C`, the Ki is 6.45 µM in assay [1] and 5.38 µM in assay [2]. `CCCCCCCCNCCC[C@@H](C)[C@H]1CC[C@H]2[C@@H]3[C@H](OCCCNC(=N)N)C[C@@H]4C[C@H](OCCCNC(=N)N)CC[C@]4(C)[C@H]3C[C@H](OCCCNC(=N)N)[C@]12C`: the MIC against Escherichia coli turned out to be 1 µg/mL (≈ 1.24 µM). On to `COC(=O)[C@H](CCCCNC(=O)CC[C@H](C)[C@H]1CC[C@H]2[C@@H]3CC[C@@H]4C[C@H](O)CC[C@]4(C)[C@H]3C[C@H](O)[C@]12C)NC(=O)CC[C@@H](C)[C@H]1CC[C@H]2[C@@H]3CC[C@@H]4C[C@H](O)CC[C@]4(C)[C@H]3C[C@H](O)[C@]12C`, for which the half-maximal inhibitory concentration (IC50) with MCF7 was below 10 µM. Turning to `C[C@H](CCC(=O)NCC(=O)O)[C@H]1CC[C@H]2[C@@H]3[C@H](OC(=O)c4cccnc4)C[C@@H]4C[C@H](O)CC[C@]4(C)[C@H]3CC[C@]12C`, the inhibitory constant (Ki) in assay [1] was 15.6 µM; in assay [2], 9.29 µM.

On to `CCCCCCCCNCCC[C@@H](C)[C@H]1CC[C@H]2[C@@H]3[C@H](OCCCN)C[C@@H]4C[C@H](OCCCN)CC[C@]4(C)[C@H]3C[C@H](OCCCN)[C@]12C`, for which the MIC in the assay on Escherichia coli came out at 1.5 µg/mL (≈ 2.22 µM). Turning to `COC(=O)[C@H](CCCCNC(=O)CC[C@H](C)[C@H]1CC[C@H]2[C@@H]3[C@H](O)C[C@@H]4C[C@H](O)CC[C@]4(C)[C@H]3C[C@H](O)[C@]12C)NC(=O)CC[C@@H](C)[C@H]1CC[C@H]2[C@@H]3[C@H](O)C[C@@H]4C[C@H](O)CC[C@]4(C)[C@H]3C[C@H](O)[C@]12C`, the half-maximal inhibitory concentration (IC50) in the assay with MCF7 was below 10 µM.

As to `C[C@H](CCC(=O)NCC(=O)O)[C@H]1CC[C@H]2[C@@H]3[C@@H](OC(=O)c4ccc(F)cc4)C[C@@H]4C[C@H](O)CC[C@]4(C)[C@H]3CC[C@]12C`, the inhibitory constant (Ki) in assay [1] amounted to 8.39 µM; in assay [2] it was 2.55 µM. Turning to `C[C@H](CCC(=O)N[C@@H](CCCCNC(=O)CC[C@H](C)[C@H]1CC[C@H]2[C@@H]3[C@H](O)C[C@@H]4C[C@H](O)CC[C@]4(C)[C@H]3C[C@H](O)[C@]12C)C(=O)O)[C@H]1CC[C@H]2[C@@H]3[C@H](O)C[C@@H]4C[C@H](O)CC[C@]4(C)[C@H]3C[C@H](O)[C@]12C`, the concentration for half-maximal inhibition (IC50) in the assay with MCF7 is above 50 µM.
